Where a chain is given by its changes, count along the chain named.

Series [1] can be described thus: Bioavailability and pharmacokinetic properties (volume of distribution, plasma clearance).
Source text: (§1) Bioavailability and Pharmacokinetic Properties
(§2) The volume of distribution (Vdist) relates the amount of the drug in the body to the concentration of the drug in the blood or plasma. […] The volume of distribution reflects the extent to which the drug is present in the extravascular tissue. A large volume of distribution reflects the tendency of a compound to bind to the tissue components compared with plasma protein binding.
(§3) To test for volume of distribution, Male Sprague Dawley rats (N=3) are administered a single 1 mg/kg intravenous dose of compound. Multiple plasma samples are collected at time points from 0.08 to 24 hours post-dose. The plasma samples are analyzed by LC/MS/MS to determine the plasma concentrations. Plasma pharmacokinetic calculations are performed to determine the pharmacokinetic parameters including Vdist and plasma clearance (Clp).
(§4) Further, the plasma clearance (CLp) is a measure of the rate of removal of the drug from the body. Following an intravenous dose and first-order kinetics, the plasma clearance may be determined using the following equation: CLp=Dose/AUC, where
(§5) AUC is the total area under the curve that describes the concentration of the drug in the plasma as a function of time from zero to infinity.
For series [2], the target named is T1, binding of 125I-sauvagine to the cerebellum (Rattus norvegicus, UniProt P35353).
T1 construct: from tissue; host or cells: rat cerebellum
T1 sequence (P35353 24-415): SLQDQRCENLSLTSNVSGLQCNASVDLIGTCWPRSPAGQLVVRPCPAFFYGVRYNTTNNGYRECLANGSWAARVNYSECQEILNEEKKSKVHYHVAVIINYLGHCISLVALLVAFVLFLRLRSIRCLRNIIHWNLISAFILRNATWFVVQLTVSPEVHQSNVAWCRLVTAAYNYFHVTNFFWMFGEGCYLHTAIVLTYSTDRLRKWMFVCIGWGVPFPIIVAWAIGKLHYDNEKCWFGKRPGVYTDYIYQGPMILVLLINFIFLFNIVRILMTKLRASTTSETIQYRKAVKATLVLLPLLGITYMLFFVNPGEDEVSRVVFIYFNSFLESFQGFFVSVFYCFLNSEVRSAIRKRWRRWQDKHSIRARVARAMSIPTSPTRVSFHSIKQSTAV
Nature of the series: In vivo potency assessment using ex vivo binding. The following applies: oral route. As for the experimental part:
In Vivo Potency Assessment Using Ex Vivo Binding
To assess in vivo potency, a compound of the present invention is evaluated using ex vivo binding. Using the procedures as provided in D. R. Gehlert et al., EJP 509: 145-153 (2005), a compound is administered to a rat via the oral route.

Series [3] addresses T2, human CRF1 (Homo sapiens, UniProt P34998).
T2 construct: expressed in transfected cells
T2 sequence (P34998 24-415): T1 sequence (P35353 24-415) with R6H, N9S, T13A, V16I, V153M, A163G, V209I, H229Y, R356H
Nature of the series: CRF1 filter binding assay. The following applies: HEK-hCRF1 membranes, 125I-sauvagine; read-out: Ki (inhibition constant). As for the experimental part:
CRF1 Filter Binding Assay
The limitations of plasmid-based human CRF1 expression, in terms of generating a recombinant cell line with sufficient receptor density to develop a binding assay, are overcome by using a Phoenix retroviral expression system licensed from Stanford. The stable HEK-hCRF1 cell line is used to prepare membranes and binding reactions (200 μL) are set up as follows: 50 μL of ^125I-sauvagine (0.2 nM final), 50 μL compound and 100 μL CRF1 membrane (25 μg/reaction). The reactions are incubated at room temperature for 2 h and then terminated by filtration through pre-treated FB Millipore glass fiber filter plates (96 well). The plates are washed twice with ice-cold assay buffer (50 mM tris, 12.5 mM NaCl, 1 mM EDTA, 10 mM MgCl2, 0.05% BSA, pH 7.2), air dried over night and counted with 100 μL Microscint 40 in a MicroBeta counter. Non-specific binding (NSB) is determined in the presence of 0.5 μM non-labeled sauvagine. Triplicate determinations are typically run and the median data points plotted by Graph Pad Prism.

The target of series [4] is T3, human CRF2 (Homo sapiens, UniProt Q13324).
T3 construct: expressed in transfected cells
T3 sequence (Q13324 1-411): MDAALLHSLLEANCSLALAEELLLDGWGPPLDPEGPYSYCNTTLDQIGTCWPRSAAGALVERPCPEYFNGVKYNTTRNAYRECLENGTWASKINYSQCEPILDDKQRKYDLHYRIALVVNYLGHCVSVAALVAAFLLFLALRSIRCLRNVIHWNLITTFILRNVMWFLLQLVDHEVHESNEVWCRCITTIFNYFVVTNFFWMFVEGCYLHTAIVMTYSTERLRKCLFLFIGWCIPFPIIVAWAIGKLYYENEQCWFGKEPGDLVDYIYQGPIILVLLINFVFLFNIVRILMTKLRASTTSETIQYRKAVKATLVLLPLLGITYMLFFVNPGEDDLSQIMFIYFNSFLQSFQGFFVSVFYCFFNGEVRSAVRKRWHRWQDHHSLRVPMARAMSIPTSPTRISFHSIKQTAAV
Briefly: CRF2 filter binding assay. To be noted: at a concentration of 50 μM. As for the experimental part:
CRF2 Filter Binding Assay
The limitations of plasmid-based human CRF2 expression, in terms of generating a recombinant cell line with sufficient receptor density to develop a binding assay, are overcome by using a Phoenix retroviral expression system licensed from Stanford. The stable HEK-hCRF2 cell line is used to prepare membranes and binding reactions (200 μL) are set up as follows: 50 μL of ^125I-sauvagine (0.2 nM final concentration), 50 μL compound and 100 μL CRF2 membrane (25 μg/reaction). The reactions are incubated at room temperature for 2 hours and then terminated by filtration through pre-treated FB Millipore glass fiber filter plates (96 well). The plates are washed twice with ice-cold assay buffer (50 mM tris, 12.5 mM NaCl, 1 mM EDTA, 10 mM MgCl2, 0.05% BSA, pH 7.2), air dried over night and counted with 100 μL Microscint 40 in a MicroBeta counter. Non-specific binding (NSB) is determined in the presence of 0.5 μM non-labeled sauvagine. Alternatively, compounds are evaluated using a Scintillation Proximity assay. […] Bound radioactivity is assessed using a Wallac Trilux scintillation counter. Binding is assessed typically using triplicate determinations and the median data points plotted by Graph Pad Prism. […]

A short description of series [5]: in vivo. To be noted: male, Sprague Dawley, rat, iv.
Source text: as §1, §2, §3, §4, §5
Setting [6] is: male, Sprague Dawley, rat, plasma, iv, 1 mg/kg.

`CCCN(CCC)c1cc(C)nc2c(-c3cnc(N(C)C)cc3C)c(C)nn12` [NBI30775]: in series [1] (single intravenous dose of 1 mg/kg, analyzed separately), the “rat Vdist (volume of distribution)” value amounted to 76 L/kg.

Usually inhibition stands for the percentage by which the read-out fell short of the control. As usually defined, the Ki is a measure of affinity in units of concentration, obtained from inhibition or displacement. As usually defined, the clearance is the rate of elimination divided by the concentration. As usually defined, the Vd is a proportionality between amount in the body and measured concentration, not a real space. A low value points to confinement near the circulation. For `CCC(CC)c1cc(C)nc2c(-c3sc(N(C)C)nc3Cl)c(C)nn12` [Example 15, {4-Chloro-5-[7-(1-ethyl-propyl)-2,5-dimethyl-pyrazolo[1,5-a]pyrimidin-3-yl]-thiazol-2-yl}-dimethyl-amine], the inhibition at 10 mg/kg in series [2] was 65%. In addition, the Ki in series [3] turned out to be 6.2 nM. Further, in series [4], the inhibition at 50 µM was found to be 11%. The clearance in series [5] stood at 23.6 mL/min/kg. The same compound registered a Vd in series [5] (1 mg/kg) of 7.2 L/kg.

In series [1] (setting [6]), `CCCCN(CC)c1nc(C)nc2c1c(C)cn2-c1c(C)cc(C)cc1C` [CP154526] registered a Vd of 114 L/kg and a clearance of 83 mL/min/kg.

For the origin of these results see patent publication US8030304B2, “Thiazole pyrazolopyrimidines CRF1 receptor antagonists” (Eli Lilly and Company, priority 2006, dated 2011).
